Data: ChEMBL document CHEMBL4477252, “Optimization of microtubule affinity regulating kinase (MARK) inhibitors with improved physical properties” (Bioorg Med Chem Lett, 2016)

Legend:
[1] = target: PI3-kinase p110-delta/p85-alpha (Homo sapiens, UniProt O00329); assay: Inhibition of full-length recombinant human His-tagged PIK3P110D/P85A expressed in baculovirus expression system by Adapta assay
[2] = target: Receptor tyrosine-protein kinase erbB-2 (Homo sapiens, UniProt P04626); assay: Inhibition of recombinant human His-tagged cytoplasmic ERBB2 expressed in baculovirus expression system by Z'-LYTE assay
[3] = target: Dual specificity protein kinase CLK2 (Homo sapiens, UniProt P49760); assay: Inhibition of recombinant human GST-tagged CLK2 catalytic domain expressed in baculovirus expression system by Z'-LYTE assay
Dual specificity protein kinase CLK2, sequence (P49760 whole entry, the tested form may be a part): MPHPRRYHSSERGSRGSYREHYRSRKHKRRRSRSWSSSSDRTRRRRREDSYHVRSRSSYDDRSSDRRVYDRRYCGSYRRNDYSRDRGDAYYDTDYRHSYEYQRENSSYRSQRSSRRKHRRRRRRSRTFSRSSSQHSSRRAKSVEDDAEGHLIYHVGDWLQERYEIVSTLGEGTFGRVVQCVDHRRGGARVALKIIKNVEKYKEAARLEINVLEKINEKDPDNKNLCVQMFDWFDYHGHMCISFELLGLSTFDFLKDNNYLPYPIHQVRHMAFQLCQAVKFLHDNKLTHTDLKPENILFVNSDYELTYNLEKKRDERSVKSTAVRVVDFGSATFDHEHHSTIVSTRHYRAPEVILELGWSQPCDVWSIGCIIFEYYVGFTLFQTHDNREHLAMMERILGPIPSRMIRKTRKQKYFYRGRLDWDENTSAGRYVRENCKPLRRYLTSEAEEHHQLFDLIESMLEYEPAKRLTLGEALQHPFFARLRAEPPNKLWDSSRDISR

[4] = target: Serine/threonine-protein kinase MRCK alpha (Homo sapiens, UniProt Q5VT25); assay: Inhibition of recombinant human His-tagged CDC42BPA catalytic domain expressed in baculovirus expression system by Z'-LYTE assay
[5] = target: Epidermal growth factor receptor (Homo sapiens, UniProt P00533); assay: Inhibition of recombinant human His-tagged EGFR expressed in mammalian expression system by Z'-LYTE assay
[6] = target: MAP/microtubule affinity-regulating kinase 3 (Homo sapiens, UniProt P27448); assay: Inhibition of full-length recombinant human GST-tagged MARK3 expressed in baculovirus expression system using biotinylated-Cdc25C peptide substrate measured after 2 hrs by HTRF assay
MAP/microtubule affinity-regulating kinase 3, sequence (P27448 whole entry): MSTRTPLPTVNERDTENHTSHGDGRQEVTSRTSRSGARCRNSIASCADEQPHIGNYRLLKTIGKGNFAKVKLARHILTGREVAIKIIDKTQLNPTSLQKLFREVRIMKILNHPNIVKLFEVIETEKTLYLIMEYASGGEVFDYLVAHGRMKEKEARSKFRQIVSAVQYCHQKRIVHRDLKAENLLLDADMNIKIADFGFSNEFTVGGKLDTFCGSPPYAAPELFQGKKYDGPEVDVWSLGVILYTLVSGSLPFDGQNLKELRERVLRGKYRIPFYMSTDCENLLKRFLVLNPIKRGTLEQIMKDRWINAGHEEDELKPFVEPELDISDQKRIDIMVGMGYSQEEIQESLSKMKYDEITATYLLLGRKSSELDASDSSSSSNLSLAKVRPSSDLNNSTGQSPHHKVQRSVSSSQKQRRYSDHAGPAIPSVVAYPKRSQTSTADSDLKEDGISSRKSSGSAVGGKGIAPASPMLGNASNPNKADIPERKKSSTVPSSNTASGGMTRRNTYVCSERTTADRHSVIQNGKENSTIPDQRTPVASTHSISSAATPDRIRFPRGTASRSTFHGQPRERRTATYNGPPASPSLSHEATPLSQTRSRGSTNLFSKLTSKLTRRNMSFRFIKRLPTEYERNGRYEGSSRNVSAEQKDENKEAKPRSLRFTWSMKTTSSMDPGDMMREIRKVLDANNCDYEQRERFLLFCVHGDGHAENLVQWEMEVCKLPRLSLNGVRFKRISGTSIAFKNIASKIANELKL

[7] = target: Glycogen synthase kinase-3 beta (Homo sapiens, UniProt P49841); assay: Inhibition of full-length recombinant human His-tagged GSK3B expressed in baculovirus expression system by Z'-LYTE assay
Glycogen synthase kinase-3 beta, sequence (P49841 whole entry): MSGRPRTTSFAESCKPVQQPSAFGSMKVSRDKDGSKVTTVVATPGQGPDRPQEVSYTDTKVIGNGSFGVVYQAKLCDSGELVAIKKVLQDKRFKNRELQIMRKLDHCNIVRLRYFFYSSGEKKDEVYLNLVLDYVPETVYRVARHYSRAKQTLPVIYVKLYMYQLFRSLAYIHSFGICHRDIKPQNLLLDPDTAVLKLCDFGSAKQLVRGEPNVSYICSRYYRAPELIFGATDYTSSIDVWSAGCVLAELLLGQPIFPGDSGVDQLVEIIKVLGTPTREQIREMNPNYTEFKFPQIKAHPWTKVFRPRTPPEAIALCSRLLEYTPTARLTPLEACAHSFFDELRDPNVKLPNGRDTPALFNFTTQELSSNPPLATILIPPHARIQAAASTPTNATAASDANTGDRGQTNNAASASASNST

[8] = target: Cyclin-dependent kinase 2 (Homo sapiens, UniProt P24941); assay: Inhibition of full-length recombinant human His-tagged CDK2 expressed in baculovirus expression system by Z'-LYTE assay
[9] = target: Insulin-like growth factor 1 receptor (Homo sapiens, UniProt P08069); assay: Inhibition of recombinant human C-terminal His-tagged cytoplasmic IGF1R (960 to 1397 residues) expressed in baculovirus expression system by Z'-LYTE assay
[10] = target: PAS domain-containing serine/threonine-protein kinase (Homo sapiens, UniProt Q96RG2); assay: Inhibition of recombinant human GST-tagged PASK catalytic domain expressed in baculovirus expression system by Z'-LYTE assay
PAS domain-containing serine/threonine-protein kinase, sequence (Q96RG2 whole entry, the tested form may be a part): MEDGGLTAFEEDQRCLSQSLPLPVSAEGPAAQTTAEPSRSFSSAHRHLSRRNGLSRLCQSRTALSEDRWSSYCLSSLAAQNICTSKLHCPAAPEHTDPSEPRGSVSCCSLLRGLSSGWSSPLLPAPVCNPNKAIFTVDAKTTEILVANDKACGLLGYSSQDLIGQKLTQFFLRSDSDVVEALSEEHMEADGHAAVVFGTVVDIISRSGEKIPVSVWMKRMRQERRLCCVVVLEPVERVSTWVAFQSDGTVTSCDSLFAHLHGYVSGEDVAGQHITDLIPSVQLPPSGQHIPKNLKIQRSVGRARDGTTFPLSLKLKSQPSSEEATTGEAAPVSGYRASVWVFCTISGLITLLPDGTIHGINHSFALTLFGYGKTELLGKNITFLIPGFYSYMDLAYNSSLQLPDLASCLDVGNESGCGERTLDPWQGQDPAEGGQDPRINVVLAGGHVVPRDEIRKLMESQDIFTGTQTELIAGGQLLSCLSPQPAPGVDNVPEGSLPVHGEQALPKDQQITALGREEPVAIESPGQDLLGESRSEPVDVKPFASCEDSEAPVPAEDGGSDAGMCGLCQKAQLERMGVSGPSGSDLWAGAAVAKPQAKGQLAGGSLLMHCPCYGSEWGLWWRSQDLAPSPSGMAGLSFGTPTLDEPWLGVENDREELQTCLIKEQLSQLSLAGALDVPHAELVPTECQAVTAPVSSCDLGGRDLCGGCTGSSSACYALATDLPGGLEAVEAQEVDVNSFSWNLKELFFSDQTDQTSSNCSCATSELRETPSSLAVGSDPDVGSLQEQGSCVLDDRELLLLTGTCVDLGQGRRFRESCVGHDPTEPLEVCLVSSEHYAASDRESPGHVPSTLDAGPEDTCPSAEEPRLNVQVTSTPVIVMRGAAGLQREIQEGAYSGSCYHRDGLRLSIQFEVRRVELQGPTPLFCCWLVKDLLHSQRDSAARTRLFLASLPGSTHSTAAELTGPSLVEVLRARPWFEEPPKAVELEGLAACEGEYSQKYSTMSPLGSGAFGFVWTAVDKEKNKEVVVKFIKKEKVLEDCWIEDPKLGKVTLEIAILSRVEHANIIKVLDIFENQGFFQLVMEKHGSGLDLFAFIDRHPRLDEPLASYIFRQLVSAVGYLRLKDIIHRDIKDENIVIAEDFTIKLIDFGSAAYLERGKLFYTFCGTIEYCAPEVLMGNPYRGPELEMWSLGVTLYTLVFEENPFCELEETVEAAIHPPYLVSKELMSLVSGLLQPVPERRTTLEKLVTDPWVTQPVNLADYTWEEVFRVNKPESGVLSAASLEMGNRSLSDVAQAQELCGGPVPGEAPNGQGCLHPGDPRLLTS

[11] = target: T1, Protein kinase C zeta type (Homo sapiens, UniProt Q05513); assay: Inhibition of full-length recombinant human PRKCZ expressed in baculovirus expression system by Z'-LYTE assay
T1 sequence (Q05513 whole entry): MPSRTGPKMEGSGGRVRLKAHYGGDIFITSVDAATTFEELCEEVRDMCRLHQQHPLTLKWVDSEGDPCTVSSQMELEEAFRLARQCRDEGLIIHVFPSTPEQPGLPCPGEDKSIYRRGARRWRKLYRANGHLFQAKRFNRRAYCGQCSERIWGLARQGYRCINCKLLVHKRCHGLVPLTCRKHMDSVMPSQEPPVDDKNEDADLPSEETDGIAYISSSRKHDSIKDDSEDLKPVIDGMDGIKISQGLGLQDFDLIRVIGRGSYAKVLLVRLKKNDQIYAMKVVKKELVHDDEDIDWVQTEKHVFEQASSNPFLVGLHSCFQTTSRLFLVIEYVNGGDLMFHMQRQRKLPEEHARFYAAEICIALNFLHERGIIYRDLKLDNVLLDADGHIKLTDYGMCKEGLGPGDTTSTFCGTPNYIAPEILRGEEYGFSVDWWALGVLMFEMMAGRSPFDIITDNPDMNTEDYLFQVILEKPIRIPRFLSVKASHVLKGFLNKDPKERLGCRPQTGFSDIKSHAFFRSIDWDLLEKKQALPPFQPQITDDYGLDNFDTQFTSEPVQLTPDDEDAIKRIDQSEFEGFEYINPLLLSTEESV

[12] = target: Glycogen synthase kinase-3 alpha (Homo sapiens, UniProt P49840); assay: Inhibition of full-length human GST-tagged GSK3A expressed in baculovirus expression system by Z'-LYTE assay
Glycogen synthase kinase-3 alpha, sequence (P49840 whole entry): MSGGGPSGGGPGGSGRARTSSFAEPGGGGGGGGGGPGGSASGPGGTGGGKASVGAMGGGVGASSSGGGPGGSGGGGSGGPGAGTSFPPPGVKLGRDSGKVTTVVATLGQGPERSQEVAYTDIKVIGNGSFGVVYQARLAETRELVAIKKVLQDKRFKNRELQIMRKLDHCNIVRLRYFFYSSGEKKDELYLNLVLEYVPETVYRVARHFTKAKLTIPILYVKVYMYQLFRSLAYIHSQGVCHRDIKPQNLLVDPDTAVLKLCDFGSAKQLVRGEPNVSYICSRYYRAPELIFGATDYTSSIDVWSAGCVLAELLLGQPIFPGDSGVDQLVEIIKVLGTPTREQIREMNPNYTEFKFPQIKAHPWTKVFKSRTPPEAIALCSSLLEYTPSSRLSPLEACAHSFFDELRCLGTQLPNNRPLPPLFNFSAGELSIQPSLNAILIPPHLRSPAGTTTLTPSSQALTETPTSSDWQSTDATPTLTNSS

[13] = target: RAF proto-oncogene serine/threonine-protein kinase (Homo sapiens, UniProt P04049, Y340D/Y341D); assay: Inhibition of recombinant human GST-tagged RAF1 Y340D/Y341D mutant expressed in baculovirus expression system by Z'-LYTE assay
RAF proto-oncogene serine/threonine-protein kinase, sequence (P04049 whole entry Y340D/Y341D): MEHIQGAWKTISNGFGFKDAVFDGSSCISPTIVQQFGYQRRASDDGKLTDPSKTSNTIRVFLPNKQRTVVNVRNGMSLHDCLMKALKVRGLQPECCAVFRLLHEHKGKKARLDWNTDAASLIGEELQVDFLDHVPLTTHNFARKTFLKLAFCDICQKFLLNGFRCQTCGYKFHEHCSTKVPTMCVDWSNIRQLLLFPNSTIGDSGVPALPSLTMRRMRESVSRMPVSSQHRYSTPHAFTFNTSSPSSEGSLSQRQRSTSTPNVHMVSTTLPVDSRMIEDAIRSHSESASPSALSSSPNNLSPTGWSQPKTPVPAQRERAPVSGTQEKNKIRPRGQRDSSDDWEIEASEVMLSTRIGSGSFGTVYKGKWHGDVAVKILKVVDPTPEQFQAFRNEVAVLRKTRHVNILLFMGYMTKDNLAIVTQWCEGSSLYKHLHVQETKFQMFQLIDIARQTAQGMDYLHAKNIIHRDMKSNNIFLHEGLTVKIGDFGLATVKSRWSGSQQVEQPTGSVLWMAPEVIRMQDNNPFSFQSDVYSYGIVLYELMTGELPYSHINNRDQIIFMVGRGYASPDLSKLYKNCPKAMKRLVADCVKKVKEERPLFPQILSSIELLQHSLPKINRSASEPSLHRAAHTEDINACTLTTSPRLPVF

[14] = target: T2, NUAK family SNF1-like kinase 1 (Homo sapiens, UniProt O60285); assay: Inhibition of full-length recombinant human His-tagged NUAK1 expressed in baculovirus expression system by Adapta assay
T2 sequence (O60285 whole entry): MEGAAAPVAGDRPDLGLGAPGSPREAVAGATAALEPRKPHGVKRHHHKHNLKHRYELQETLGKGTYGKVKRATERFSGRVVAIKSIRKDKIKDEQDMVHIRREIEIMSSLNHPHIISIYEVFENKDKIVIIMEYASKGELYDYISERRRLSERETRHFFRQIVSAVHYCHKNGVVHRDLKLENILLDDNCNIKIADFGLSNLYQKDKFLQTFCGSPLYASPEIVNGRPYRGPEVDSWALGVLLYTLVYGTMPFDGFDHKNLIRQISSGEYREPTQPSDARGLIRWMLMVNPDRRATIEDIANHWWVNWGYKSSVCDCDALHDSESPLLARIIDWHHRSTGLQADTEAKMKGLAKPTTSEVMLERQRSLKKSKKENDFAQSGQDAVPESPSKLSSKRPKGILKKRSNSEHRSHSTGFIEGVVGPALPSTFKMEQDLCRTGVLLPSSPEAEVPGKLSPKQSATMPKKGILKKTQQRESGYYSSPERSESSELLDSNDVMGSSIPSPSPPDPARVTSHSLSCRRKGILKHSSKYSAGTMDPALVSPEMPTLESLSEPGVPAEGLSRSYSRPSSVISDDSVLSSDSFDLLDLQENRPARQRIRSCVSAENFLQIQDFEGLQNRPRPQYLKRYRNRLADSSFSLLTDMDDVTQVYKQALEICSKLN

[15] = target: T3, Serine/threonine-protein kinase Chk1 (Homo sapiens, UniProt O14757); assay: Inhibition of full-length recombinant human His-tagged CHEK1 expressed in baculovirus expression system by Z'-LYTE assay
T3 sequence (O14757 whole entry): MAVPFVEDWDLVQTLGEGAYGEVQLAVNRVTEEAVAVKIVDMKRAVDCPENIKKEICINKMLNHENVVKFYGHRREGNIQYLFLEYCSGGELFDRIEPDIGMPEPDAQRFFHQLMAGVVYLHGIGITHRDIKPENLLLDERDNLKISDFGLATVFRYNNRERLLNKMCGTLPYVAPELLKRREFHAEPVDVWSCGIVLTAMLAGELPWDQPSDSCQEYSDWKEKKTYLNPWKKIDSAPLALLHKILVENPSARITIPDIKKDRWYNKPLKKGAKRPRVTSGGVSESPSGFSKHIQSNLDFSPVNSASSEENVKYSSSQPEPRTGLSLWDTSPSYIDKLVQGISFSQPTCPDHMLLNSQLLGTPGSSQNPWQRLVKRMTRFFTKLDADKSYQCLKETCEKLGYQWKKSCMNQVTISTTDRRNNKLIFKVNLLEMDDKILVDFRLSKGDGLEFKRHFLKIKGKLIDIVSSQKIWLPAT

Q: Which IC50 [1] does the source give for Cn1cc(-c2cnc3c(-c4csc(C(=O)NCC(F)(F)F)c4)cnn3c2)cn1 here?
A: 1500 nM

Q: What about the IC50 [2] of the same molecule?
A: > 100000 nM

Q: What about the IC50 [3] of the same molecule?
A: < 10 nM

Q: What about the IC50 [4] of the same molecule?
A: 9200 nM

Q: And the IC50 [5]?
A: 28000 nM

Q: What about the IC50 [6] of the same molecule?
A: 6 nM

Q: What about the IC50 [7] of the same molecule?
A: 84 nM

Q: What about the IC50 [8] of the same molecule?
A: < 10 nM

Q: And the IC50 [9]?
A: > 100000 nM

Q: And the IC50 [10]?
A: > 100000 nM

Q: And the IC50 [11]?
A: 1800 nM

Q: And the IC50 [12]?
A: 130 nM

Q: And the IC50 [13]?
A: 560 nM

Q: And the IC50 [14]?
A: 19 nM

Q: What about the IC50 [15] of the same molecule?
A: 190 nM

Q: With Cc1sc(C(=O)N[C@@H]2[C@H](N)CCCC2(F)F)cc1-c1cnn2cc(Cl)cnc12 as the molecule, how does the IC50 [1] read?
A: > 100000 nM

Q: And the IC50 [2]?
A: > 100000 nM

Q: What about the IC50 [3] of the same molecule?
A: 110 nM

Q: And the IC50 [4]?
A: 1000 nM

Q: What about the IC50 [5] of the same molecule?
A: > 100000 nM

Q: And the IC50 [6]?
A: 5 nM

Q: And the IC50 [7]?
A: 150 nM

Q: And the IC50 [8]?
A: 51 nM

Q: What about the IC50 [9] of the same molecule?
A: > 100000 nM

Q: What about the IC50 [10] of the same molecule?
A: 1400 nM

Q: What about the IC50 [11] of the same molecule?
A: 1100 nM

Q: And the IC50 [12]?
A: 110 nM

Q: And the IC50 [13]?
A: 950 nM

Q: And the IC50 [14]?
A: 200 nM

Q: And the IC50 [15]?
A: 200 nM

Q: With O=C(NCC(F)(F)F)c1cc(-c2cnn3cc(-c4ccc(OCCN5CCCCC5)cc4)cnc23)cs1 as the molecule, how does the IC50 [1] read?
A: 55000 nM

Q: What about the IC50 [2] of the same molecule?
A: 35000 nM

Q: And the IC50 [3]?
A: < 10 nM

Q: And the IC50 [4]?
A: 1200 nM

Q: And the IC50 [5]?
A: 1100 nM

Q: What about the IC50 [6] of the same molecule?
A: 1 nM

Q: What about the IC50 [7] of the same molecule?
A: 220 nM

Q: What about the IC50 [8] of the same molecule?
A: 12 nM

Q: What about the IC50 [9] of the same molecule?
A: > 100000 nM

Q: What about the IC50 [10] of the same molecule?
A: 37000 nM

Q: What about the IC50 [11] of the same molecule?
A: 1900 nM

Q: And the IC50 [12]?
A: 360 nM

Q: And the IC50 [13]?
A: 630 nM

Q: And the IC50 [14]?
A: 15 nM

Q: What about the IC50 [15] of the same molecule?
A: 57 nM

Q: With Cn1cc(-c2cnc3c(-c4csc(C(=O)N[C@@H]5CCCC[C@@H]5N)c4)cnn3c2)cn1 (racemic) as the molecule, how does the IC50 [1] read?
A: 3300 nM

Q: What about the IC50 [2] of the same molecule?
A: 1000 nM

Q: What about the IC50 [3] of the same molecule?
A: 14 nM

Q: And the IC50 [4]?
A: 72 nM

Q: And the IC50 [5]?
A: 340 nM

Q: And the IC50 [6]?
A: ≤ 0.5 nM

Q: What about the IC50 [7] of the same molecule?
A: 23 nM

Q: What about the IC50 [8] of the same molecule?
A: 2.2 nM

Q: And the IC50 [9]?
A: 2800 nM

Q: And the IC50 [10]?
A: 1500 nM

Q: And the IC50 [11]?
A: 40 nM

Q: And the IC50 [12]?
A: 42 nM

Q: And the IC50 [13]?
A: 48 nM

Q: And the IC50 [14]?
A: 4.2 nM

Q: And the IC50 [15]?
A: 2.2 nM
